Test results as given in ChEMBL document CHEMBL3808294, “Design, synthesis and anti-HIV activity of novel quinoxaline derivatives” (Eur J Med Chem, 2016).
In brackets after ≈: the same amount, converted by molar mass.

Key:
[1] = tested on: Human immunodeficiency virus 1; experiment: Antiviral activity against HIV1 3B infected in human MT4 cells assessed as protection against virus-induced cytopathogenic effect after 5 days by MTT assay; assay type: functional, organism-based; conditions: for IC50: Human immunodeficiency virus 1, 3B, MT4, 120 h
[2] = Cytotoxicity against human MT4 cells […] assessed as cell growth inhibition after 5 days by MTT assay; assay type: cell-based
Vero = experiment: Cytotoxicity against African green monkey Vero cells assessed as cell growth inhibition after 24 hrs by MTT assay; assay type: cell-based; conditions: Chlorocebus sabaeus

Q: Which “%max” value [1] does the source give for `Cc1ccc(-c2nc3cc(F)c(Cl)cc3nc2-c2ccc(C)cc2)cc1` here?
A: Its value is 4%.

Q: What about the IC50 [1] of the same compound?
A: The IC50 was greater than 27.8 µg/mL.

Q: And the CC50 at 120 h [2]?
A: The CC50 at 120 h was 27.8 µg/mL (≈ 76.6 µM).

Q: And the IC50 (Vero)?
A: The IC50 was greater than 100 µg/mL.

Q: Which “%max” value [1] does the source give for `Nc1nc2cc(F)c(Cl)cc2nc1N` here?
A: Its value is 9%.

Q: And the IC50 [1]?
A: Its IC50 is greater than 38.4 µg/mL.

Q: And the CC50 at 120 h [2]?
A: The CC50 at 120 h was 38.5 µg/mL (≈ 181 µM).

Q: And the IC50 (Vero)?
A: Its IC50 is greater than 100 µg/mL.

Q: With `Fc1cc2nccnc2cc1Cl` as the compound, how does the “%max” value [1] read?
A: The value was 3%.

Q: What about the IC50 [1] of the same compound?
A: The IC50 was greater than 91.1 µg/mL.

Q: What about the CC50 at 120 h [2] of the same compound?
A: The CC50 at 120 h was 91.2 µg/mL (≈ 499 µM).

Q: What about the IC50 (Vero) of the same compound?
A: The IC50 was 13.7 µg/mL (≈ 75 µM).

Q: For `Cc1nc2cc(F)c(Cl)cc2nc1C`, which “%max” value [1] is on record?
A: The value was 5%.

Q: What about the IC50 [1] of the same compound?
A: The IC50 was greater than 49.7 µg/mL.

Q: And the CC50 at 120 h [2]?
A: The CC50 at 120 h was 49.7 µg/mL (≈ 236 µM).

Q: What about the IC50 (Vero) of the same compound?
A: The IC50 was greater than 100 µg/mL.

Q: Which results are given for `Fc1cc2nc(-c3ccccc3)c(-c3ccccc3)nc2cc1Cl`?
A: %max [1]: 3%; IC50 [1]: > 11.8 µg/mL; CC50 at 120 h [2]: 11.8 µg/mL (≈ 35.2 µM); IC50 (Vero): > 100 µg/mL

Q: For `Fc1ccc(-c2nc3cc(F)c(Cl)cc3nc2-c2ccc(F)cc2)cc1`, which “%max” value [1] is on record?
A: Its value is 3%.

Q: What about the IC50 [1] of the same compound?
A: Its IC50 is greater than 15.4 µg/mL.

Q: What about the CC50 at 120 h [2] of the same compound?
A: Its CC50 at 120 h is 15.4 µg/mL (≈ 41.7 µM).

Q: And the IC50 (Vero)?
A: Its IC50 is greater than 100 µg/mL.

Q: For `COc1ccc(-c2nc3cc(F)c(Cl)cc3nc2-c2ccc(OC)cc2)cc1`, which “%max” value [1] is on record?
A: Its value is 1%.

Q: What about the IC50 [1] of the same compound?
A: Its IC50 is greater than 30.5 µg/mL.

Q: And the CC50 at 120 h [2]?
A: Its CC50 at 120 h is 30.6 µg/mL (≈ 77.4 µM).

Q: And the IC50 (Vero)?
A: Its IC50 is greater than 100 µg/mL.

Q: For `O=c1[nH]cnc2c1ncn2[C@H]1CC[C@@H](CO)O1` [DIDANOSINE], which IC50 [1] is on record?
A: The IC50 was 17.9 µg/mL (≈ 76 µM).

Q: For `Nc1ccn([C@@H]2CS[C@H](CO)O2)c(=O)n1` [LAMIVUDINE], which IC50 [1] is on record?
A: Its IC50 is 0.58 µg/mL (≈ 2.53 µM).

Q: And the CC50 at 120 h [2]?
A: Its CC50 at 120 h is 20 µg/mL (≈ 87.2 µM).

Q: With `Cc1ccnc2c1NC(=O)c1cccnc1N2C1CC1` [NEVIRAPINE] as the compound, how does the IC50 [1] read?
A: The IC50 was 0.075 µg/mL (≈ 0.282 µM).

Q: And the IC50 (Vero)?
A: The IC50 was greater than 100 µg/mL.

Q: Which IC50 (Vero) does the source give for `CC(=O)O[C@H]1C(=O)[C@@]2(C)[C@H]([C@H](OC(=O)c3ccccc3)[C@]3(O)C[C@H](OC(=O)[C@H](O)[C@@H](NC(=O)c4ccccc4)c4ccccc4)C(C)=C1C3(C)C)[C@]1(OC(C)=O)CO[C@@H]1C[C@@H]2O` [PACLITAXEL] here?
A: The IC50 was greater than 100 µg/mL.

Q: With `Cc1cn([C@H]2C[C@H](N=[N+]=[N-])[C@@H](CO)O2)c(=O)[nH]c1=O` [ZIDOVUDINE] as the compound, how does the IC50 [1] read?
A: Its IC50 is 0.002 µg/mL (≈ 0.00748 µM).

Q: And the CC50 at 120 h [2]?
A: Its CC50 at 120 h is 2 µg/mL (≈ 7.48 µM).
